Measured values reported in ChEMBL document CHEMBL4689842, “EUbOPEN Chemogenomics Library wave 1” (2021).

System: Fibroblast
Test: Incucyte cell viability with human fibroblast; also: filed as whole numbers so only -1 and 0 and 1 occur
Assay type: toxicity, cell-based
Settings: 10 µM, compound concentration 10 uM
[1] = 0 h, replicate number 1, timepoint 0 hours
[2] = 6 h, replicate number 1, timepoint 6 hours
[3] = 12 h, replicate number 1, timepoint 12 hours
[4] = 18 h, replicate number 1, timepoint 18 hours
[5] = 24 h, replicate number 1, timepoint 24 hours
[6] = 12 h, replicate number 2, timepoint 12 hours
[7] = 0 h, replicate number 2, timepoint 0 hours
[8] = 6 h, replicate number 2, timepoint 6 hours
[9] = 18 h, replicate number 2, timepoint 18 hours
[10] = 24 h, replicate number 2, timepoint 24 hours

Row | Structure (SMILES) | Growth Rate [1] | Growth Rate [2] | Growth Rate [3] | Growth Rate [4] | Growth Rate [5] | Growth Rate [6] | Growth Rate [7] | Growth Rate [8] | Growth Rate [9] | Growth Rate [10]
1 | CN1CCC(=C2c3ccccc3CC(=O)c3sccc32)CC1.O=C(O)/C=C/C(=O)O [KETOTIFEN FUMARATE] | 0 | 0 | 0 | 0 | 0 |  |  |  |  | 
2 | CCN1CCN(c2ccc(Nc3cc(N(C)C(=O)Nc4c(Cl)c(OC)cc(OC)c4Cl)ncn3)cc2)CC1 [INFIGRATINIB] | 0 | 1 | 1 | 0 | 0 |  |  |  |  | 
3 | CCNc1cc(N[C@H]2CC[C@H](O)CC2)nc(Nc2ccc3c(ccn3Cc3ccccc3)c2)n1 |  | 0 | 0 | 0 | 0 |  |  |  |  | 
4 | CCn1cc(-c2ccnc3[nH]c(-c4cccc(CN(C)C)c4)cc23)c(-c2ccc(NC(=O)N(C)C)cc2)n1 [GSK-1070916] | 0 | 1 | 0 | 0 | 0 | 1 |  |  |  | 
5 | COC(=N)c1nc2ccc3ncnc(Nc4ccc(OC)cc4F)c3c2s1 | 0 |  | 1 | 1 | 0 |  |  |  |  | 
6 | CCCn1c(=O)c2[nH]c(-c3cnn(Cc4cccc(C(F)(F)F)c4)c3)nc2n(CC)c1=O [GS 6201] | 0 |  |  | 1 | 1 |  |  |  |  | 
7 | COc1cc(N2CCN(C)CC2)ccc1Nc1ncc2c(n1)N(C)c1ccccc1C(=O)N2C | 0 |  | 0 | 1 | 1 |  |  |  |  | 
8 | COc1ccc(S(=O)(=O)N(CCO)c2ccccc2CN(C)C/C=C/c2ccc(Cl)cc2)cc1.O=P(O)(O)O |  | 0 | 0 | 0 | 0 |  | 1 | 1 |  | 
9 | S=C(NCCCc1c[nH]cn1)NCCCN(Cc1ccc(Cl)c(Cl)c1)c1ccc(Br)cn1 | 0 | 0 | 0 | 0 | 0 |  |  |  |  | 
10 | O=C(Cc1ccc(-c2ccc(OCCN3CCOCC3)cc2)cn1)NCc1ccccc1 [TIRBANIBULIN] |  | 0 | 0 | 0 | 0 |  |  |  |  | 
11 | C=CCn1c(=O)c2cnc(Nc3ccc(N4CCN(C)CC4)cc3)nc2n1-c1cccc(C(C)(C)O)n1 [ADAVOSERTIB] | 0 | 0 | 0 | 0 | 0 |  |  |  |  | 
12 | O=C(Nc1ccc(Cl)cc1)Nc1cccc(-c2cccc(N3CCCC3)n2)c1 | 0 | 0 | 0 | 0 | 0 |  |  |  |  | 
13 | CCCS(=O)(=O)Nc1ccc(F)c(C(=O)c2c[nH]c3ncc(Cl)cc23)c1F [PLX-4720] | 1 | 0 | 0 | 0 | 0 |  | 0 |  |  | 
14 | COCC(=O)NC/C=C/c1ccc2ncnc(Nc3ccc(Oc4ccc(C)nc4)c(C)c3)c2c1 [CP-724714] | 0 |  | 1 | 1 | 1 | 0 |  | 1 | 0 | 0
15 | CCOC(=O)c1c(C)[nH]c2ccc3c(c12)CN1CCc2cc(OC)ccc2C1O3 (stereo unspecified) |  | 0 | 0 | 0 | 0 |  |  |  |  | 
16 | CN1CCN(C(=O)C(C)(C)c2ccc(C(=O)Nc3cn4cc(-c5ccncc5)ccc4n3)cc2)CC1 [T3-CLK] |  |  |  | 1 | 1 |  | 0 |  |  | 
17 | Cc1ccc2nc(NCCN)c3ncc(C)n3c2c1.O=C(O)C(F)(F)F.O=C(O)C(F)(F)F |  | 0 | 0 | 0 | 0 |  | 0 |  |  | 
18 | Cl.O=c1c2cccn2c2ccccc2n1CCCN1CCC(c2ccc(Cl)cc2)CC1 | 1 | 0 | 0 | 0 | 0 |  |  |  |  | 
19 | CCOc1cc(C(=O)N2CCC(N3CCN(C)CC3)CC2)ccc1Nc1ncc2c(n1)N(C1CCCC1)c1ccccc1C(=O)N2C |  | 1 | 0 | 0 | 0 |  | 0 |  | 1 | 1
20 | CCN1CCN(Cc2ccc(Nc3ncc(F)c(-c4cc(F)c5nc(C)n(C(C)C)c5c4)n3)nc2)CC1.CS(=O)(=O)O | 0 |  |  | 1 | 0 |  |  |  |  | 1
21 | Cl.O=C(c1ccc(Nc2nccc(-c3cc4ccccc4s3)n2)cc1)N1CCC(N2CCCC2)CC1 | 0 | 0 | 0 | 0 | 0 |  |  |  |  | 
22 | O=C1N/C(=N/c2ccccc2F)S/C1=C\c1ccc(C(=O)O)cc1 |  |  |  |  | 0 |  |  |  |  | 
23 | Cc1cc(C)c(S(=O)(=O)N(Cc2ccc(-c3cccc(S(C)(=O)=O)c3)cc2)Cc2ccc(C(F)(F)F)o2)c(C)c1 | 1 | 1 | 0 | 0 | 0 |  | 0 |  |  | 
24 | CCCS(=O)(=O)c1nc(NC2CC2)cc(-c2ccc3c(ccn3C3CC(C)(C)NC(C)(C)C3)c2)n1 | 0 | 0 | 0 | 0 | 0 |  |  |  | 1 | 
